Like-named read-outs stand apart in the source and are kept apart here. Bridge positions count the residues as written; N and C are the ends. Peptide text beside a SMILES is read from it.
How the values were obtained:
Human β-FXIIa = biological target: T1, Human β-FXIIa (Homo sapiens, UniProt P00748); experiment: FXIIa competitive inhibition assay, colorimetric substrate Ac-QRFR-pNA; type: biochemical
T1 construct: Human β-FXIIa was obtained from Molecular Innovations, together with human FXa, human FXIa, human α-thrombin, and human plasma kallikrein; purchased Molecular Innovations; host or cells: purified from human plasma
Protocol: The activity of acyclic and cyclic MCoFx1-5 and analogues thereof was assessed in competitive inhibition assays, as previously described in Swedberg et al. (2016) J Med Chem, 59: 7287-7292. Human β-FXIIa was obtained from Molecular Innovations, together with human FXa, human FXIa, human α-thrombin, and human plasma kallikrein. Human cationic trypsin and human plasmin were obtained from Sigma-Aldrich, and recombinant human matriptase was sourced from R&D Systems. Recombinant human urokinase (uPA) and recombinant human tissue plasminogen activator (tPA) were expressed in Expi293 cells, as previously described in Li et al. (2019) Chembiochem, 20: 46-50. FXIIa inhibition assays were performed in clear, low-binding 96-well plates using 250 μL (final volume) of assay buffer (0.1 M Tris-HCl pH 8.0, 0.1 M NaCl, 10 mM CaCl2 and 0.005% Triton X-100). Inhibitors were serially diluted and incubated with 10 nM FXIIa at room temperature to reach equilibrium. After adding 100 μM Ac-QRFR-pNA substrate (KM=162 μM), enzymatic activity was measured by monitoring release of the pNA moiety using a TECAN infinite M1000 Pro plate reader (A=405 nm, reading interval, 10 s; assay time course, 7 min). Assays were conducted in three times in duplicate. Substrate kinetic constants (Michaelis-Menten) and inhibition constants (Morrison K) were determined by non-linear regression using Prism 7 (GraphPad). Selectivity assays with off-target proteases were performed in a similar way, except that different concentrations of enzyme and substrate were used, as indicated in Table 16. For assays using a fluorescent substrate (peptide-4-methylcoumaryl-7-amide, MCA), black low-binding 96-well plates were used and activity was measured using a TECAN infinite M1000 pro plate reader (λex 360 nm, λem 460 nm, reading interval, 30 s; assay time course, 5-30 min).

bovine trypsin = biological target: T2, bovine trypsin (Bos taurus, UniProt P00760); experiment: Surface plasmon resonance binding to trypsin
T2 sequence (P00760 24-246): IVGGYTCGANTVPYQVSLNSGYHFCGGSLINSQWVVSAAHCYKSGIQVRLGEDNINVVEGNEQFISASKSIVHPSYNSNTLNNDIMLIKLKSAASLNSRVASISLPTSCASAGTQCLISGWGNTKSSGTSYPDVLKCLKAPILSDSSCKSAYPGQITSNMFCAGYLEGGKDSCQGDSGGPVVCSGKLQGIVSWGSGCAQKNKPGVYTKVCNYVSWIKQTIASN

[1] = biological target: T3, biotinylated human β-FXIIa (Homo sapiens, UniProt P00748); experiment: Surface plasmon resonance binding to FXIIa
T3 construct: purchased Molecular Innovations
Protocol: Binding kinetics of each peptide towards biotinylated human β-FXIIa (Molecular Innovations) and non-labelled zymogen FXII (Haematologic Technologies) were determined using a Biacore T200 machine (Cytiva). For β-FXIIa binding measurements, the running buffer was HBS-EP+(10 mM HEPES, 150 mM NaCl, 3 mM EDTA and 0.05% (v/v) surfactant P20, pH 7.4). Biotinylated β-FXIIa was immobilized on a Sensor Chip CAP (Cytiva) using Biotin CAPture Reagent (Cytiva). A series of concentrations of each peptide were injected as analyte and the binding kinetics were modelled using a 1:1 binding model. Regeneration of sensor surface was performed after each measurement cycle. For FXII binding measurements, the running buffer was PBST (137 mM NaCl, 2.7 mM KCl, 10 mM Na2HPO4, 1.8 mM KH2PO4, 0.05% Tween-20). Non-labelled FXII was immobilized on a Sensor Chip CM5 (Cytiva) using Amine Coupling Kit (Cytiva), achieving a final immobilization level of 2500 RU. Each peptide was flowed through immobilized FXII at 5 μM for 60 s and allowed dissociation for 150 s.

[2] = Table 7, FXIIa, cyclic form of the peptide, read-out: Ki (nM) Cyclic
[3] = Table 8, cyclic form, read-out: KD (nM) Trypsin Cyclic

T3 sequence (P00748 373-615 limits assumed, other chains not shown): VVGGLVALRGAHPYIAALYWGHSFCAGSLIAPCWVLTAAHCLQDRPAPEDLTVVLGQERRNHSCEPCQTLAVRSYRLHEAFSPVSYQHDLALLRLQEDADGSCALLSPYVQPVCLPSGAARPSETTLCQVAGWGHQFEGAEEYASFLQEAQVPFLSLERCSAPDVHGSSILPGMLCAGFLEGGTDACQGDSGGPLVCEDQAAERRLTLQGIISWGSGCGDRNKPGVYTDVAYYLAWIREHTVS
T1 sequence (P00748 373-615 limits assumed, other chains not shown): as above

CC[C@H](C)[C@@H]1NC(=O)CNC(=O)CNC(=O)[C@H](CC(=O)O)NC(=O)[C@H](CO)NC(=O)CNC(=O)[C@H](CO)NC(=O)CNC(=O)[C@@H]2CSSC[C@@H]3NC(=O)[C@H](CC(=O)O)NC(=O)[C@H](CO)NC(=O)[C@H](CC(=O)O)NC(=O)[C@H](CCCNC(=N)N)NC(=O)[C@H](CCCNC(=N)N)NC(=O)[C@@H]4CSSC[C@H](NC(=O)[C@H]([C@@H](C)CC)NC(=O)[C@H](CSSC[C@H](NC1=O)C(=O)N1CCC[C@H]1C(=O)N[C@@H](CCCNC(=N)N)C(=O)N[C@@H]([C@@H](C)CC)C(=O)N[C@@H](CC(C)C)C(=O)N[C@@H](C(C)C)C(=O)N[C@@H](Cc1ccc(O)cc1)C(=O)N4)NC(=O)[C@H](C)NC(=O)CNC(=O)[C@@H]1CCCN1C3=O)C(=O)N[C@@H]([C@@H](C)CC)C(=O)N[C@@H](CCCNC(=N)N)C(=O)N[C@@H](CCCNC(=N)N)C(=O)N[C@@H]([C@@H](C)O)C(=O)N[C@@H](Cc1ccc(O)cc1)C(=O)N2 [MCoFx2 cyclic] (cyclo(ACICIRRTYCGSGSDGGICPRILVYCRRDSDCPG); disulfide 2-19, 4-26, 10-32)
Ki (Human β-FXIIa; [2]): 12 ± 0.7 nM
Kd (bovine trypsin; [3]): < 0.1 nM
Kd ([1]; Table 7, FXIIa, cyclic form of the peptide, read-out: KD (nM) Cyclic): 10 nM

CC[C@H](C)[C@@H]1NC(=O)[C@@H]2CSSC[C@H](NC(=O)[C@H](CCCNC(=N)N)NC(=O)CNC(=O)CNC(=O)[C@@H](N)CC(=O)O)C(=O)N3CCC[C@H]3C(=O)N[C@@H](CCCNC(=N)N)C(=O)N[C@@H](CC(C)C)C(=O)N[C@@H](CC(C)C)C(=O)N[C@@H](CCCNC(=N)N)C(=O)N[C@@H](Cc3c[nH]c4ccccc34)C(=O)N[C@H]3CSSC[C@H](NC1=O)C(=O)N[C@@H](C)C(=O)N[C@@H](CCCNC(=N)N)C(=O)NCC(=O)NCC(=O)N[C@@H](CC(C)C)C(=O)N[C@H](C(=O)NCC(=O)N[C@@H](CO)C(=O)NCC(=O)N[C@@H](CO)C(=O)O)CSSC[C@H](NC(=O)[C@H](CC(=O)O)NC(=O)[C@H](CO)NC(=O)[C@H](CC(=O)O)NC(=O)[C@H](CCCNC(=N)N)NC(=O)[C@H](CCCNC(=N)N)NC3=O)C(=O)N1CCC[C@H]1C(=O)NCC(=O)N[C@@H](C)C(=O)N2 [MCoFx3 acyclic] (H-DGGRCPRLLRWCRRDSDCPGACICARGGLCGSGS-OH; disulfide 5-22, 12-24, 18-30)
Ki (Human β-FXIIa): 525 ± 30 nM
Kd (bovine trypsin): 2.39 nM
Kd [1]: 167 ± 40 nM

CC[C@H](C)[C@@H]1NC(=O)[C@@H]2CSSC[C@@H]3NC(=O)[C@H](CCCNC(=N)N)NC(=O)CNC(=O)CNC(=O)[C@H](CC(=O)O)NC(=O)[C@H](CO)NC(=O)CNC(=O)[C@H](CO)NC(=O)CNC(=O)[C@@H]4CSSC[C@H](NC(=O)[C@H](CC(=O)O)NC(=O)[C@H](CO)NC(=O)[C@H](CC(=O)O)NC(=O)[C@H](CCCNC(=N)N)NC(=O)[C@H](CCCNC(=N)N)NC(=O)[C@H](CSSC[C@H](NC1=O)C(=O)N[C@@H](C)C(=O)N[C@@H](CCCNC(=N)N)C(=O)NCC(=O)NCC(=O)N[C@@H](CC(C)C)C(=O)N4)NC(=O)[C@H](Cc1c[nH]c4ccccc14)NC(=O)[C@H](CCCNC(=N)N)NC(=O)[C@H](CC(C)C)NC(=O)[C@H](CC(C)C)NC(=O)[C@H](CCCNC(=N)N)NC(=O)[C@@H]1CCCN1C3=O)C(=O)N1CCC[C@H]1C(=O)NCC(=O)N[C@@H](C)C(=O)N2 [MCoFx3 cyclic] (cyclo(ACICARGGLCGSGSDGGRCPRLLRWCRRDSDCPG); disulfide 2-19, 4-26, 10-32)
Ki (Human β-FXIIa; [2]): 75 ± 3 nM
Kd (bovine trypsin; [3]): 2.72 nM
Kd ([1]; Table 8, cyclic form, read-out: KD (nM) FXIIa Cyclic): 22.8 ± 1.6 nM

— patent publication US20240344241A1, “PROTEINACEOUS MOLECULES AND USES THEREFOR” (THE UNIVERSITY OF QUEENSLAND, priority 2021, published 2024)
